Reference: patent US10239843B2 (CANCER RESEARCH TECHNOLOGY LIMITED, priority 2014, dated 2019)
Where two headings read alike, the source gives them in different places.

Tests used:
Human Full Length PARG = Human Full Length PARG (Homo sapiens (Human), UniProt Q86W56); assay: PARG enzyme assay (TR-FRET); type: biochemical
PARG in HeLa cell line = assay: PARG cell assay (PAR chain immunofluorescence after MMS); type: cell-based; conditions: HeLa cells
In short: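 Nuclear poly(ADP-ribose) chains in HeLa cells are read by indirect immunofluorescence with a mouse anti-PAR antibody applied overnight at 4° C after fixing and permeabilising. Cells get 1 h of compound, then 50 μg/mL MMS (final) for another hour. PAR persisting at that point reflects PARG inhibition.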

Human Full Length ARH3 = Human Full Length ARH3 (Homo sapiens (Human), UniProt Q9NX46); assay: ARH3 in vitro selectivity assay (TR-FRET); type: biochemical; conditions: read-out: ARH3 Biochem IC50
Human Full Length ARH3, sequence (Q9NX46 whole entry): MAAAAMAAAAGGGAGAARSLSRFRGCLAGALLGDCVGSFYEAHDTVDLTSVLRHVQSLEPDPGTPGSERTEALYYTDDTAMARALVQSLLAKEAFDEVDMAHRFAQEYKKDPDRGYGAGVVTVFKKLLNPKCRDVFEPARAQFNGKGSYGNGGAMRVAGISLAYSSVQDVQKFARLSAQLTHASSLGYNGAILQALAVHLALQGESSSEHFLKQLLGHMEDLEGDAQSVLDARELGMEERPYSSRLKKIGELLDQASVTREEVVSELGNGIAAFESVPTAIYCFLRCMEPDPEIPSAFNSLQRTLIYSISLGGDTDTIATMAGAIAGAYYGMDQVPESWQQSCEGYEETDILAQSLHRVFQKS
Procedure: ARH3 In vitro selectivity assays were conducted in a total volume of 15 ul in a standard 384 well format.

[1] = biological target: Human High specific Activity PARP1 (Homo sapiens (Human), UniProt P09874); assay: PARP1 in vitro selectivity assay (histone PARylation, luminescence); type: biochemical; conditions: read-out: PARP1 Biochem IC50
Human High specific Activity PARP1, sequence (P09874 whole entry): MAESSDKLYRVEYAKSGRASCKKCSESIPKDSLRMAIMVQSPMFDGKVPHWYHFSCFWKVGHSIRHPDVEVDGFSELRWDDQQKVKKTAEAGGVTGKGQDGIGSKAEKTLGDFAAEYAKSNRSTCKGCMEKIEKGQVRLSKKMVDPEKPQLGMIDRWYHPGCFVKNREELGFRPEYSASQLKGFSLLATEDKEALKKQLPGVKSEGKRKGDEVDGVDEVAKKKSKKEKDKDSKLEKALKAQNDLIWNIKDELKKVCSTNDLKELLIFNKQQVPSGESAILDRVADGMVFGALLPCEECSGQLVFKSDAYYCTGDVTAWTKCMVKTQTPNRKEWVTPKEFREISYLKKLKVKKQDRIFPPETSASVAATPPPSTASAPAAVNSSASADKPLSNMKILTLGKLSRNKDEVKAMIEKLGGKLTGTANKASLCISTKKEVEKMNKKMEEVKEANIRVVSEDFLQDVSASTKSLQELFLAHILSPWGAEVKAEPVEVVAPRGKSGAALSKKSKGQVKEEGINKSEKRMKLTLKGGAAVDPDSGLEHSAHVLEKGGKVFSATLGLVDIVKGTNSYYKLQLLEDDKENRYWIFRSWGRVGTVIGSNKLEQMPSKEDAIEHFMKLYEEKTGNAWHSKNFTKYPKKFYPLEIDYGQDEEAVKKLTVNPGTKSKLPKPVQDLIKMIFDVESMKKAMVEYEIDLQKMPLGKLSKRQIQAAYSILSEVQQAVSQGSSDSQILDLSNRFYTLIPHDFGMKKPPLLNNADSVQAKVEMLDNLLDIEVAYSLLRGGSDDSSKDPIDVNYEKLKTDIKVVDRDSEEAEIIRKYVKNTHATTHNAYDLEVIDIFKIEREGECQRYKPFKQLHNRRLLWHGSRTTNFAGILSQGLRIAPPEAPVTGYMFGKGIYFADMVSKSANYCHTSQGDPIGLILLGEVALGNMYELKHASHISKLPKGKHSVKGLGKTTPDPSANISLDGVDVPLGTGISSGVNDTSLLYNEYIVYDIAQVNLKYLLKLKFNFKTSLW
Procedure: PARP1 In vitro selectivity assays were conducted as a 10 ul reaction volume in a NUNC Maxisorp 384-well assay plate pre-coated in-house with Histones. […] The wells were then washed with PBS/0.1% Triton X100. PARP1 activity was then detected by measuring the extent of PARylation. […] Luminescence signal was then measured immediately.

[2] = Homo sapiens, MMS treatment, read-out: PARG Cell IC50
[3] = read-out: PARG Biochem IC50 Geomean
[4] = MMS treatment, read-out: PARG Cell IC50
[5] = MMS 50 μg/mL, read-out: PARG Cell IC50 Geomean
[6] = Homo sapiens, MMS 50 μg/mL, read-out: PARG Cell IC50 Geomean

Human Full Length PARG, sequence (Q86W56 whole entry): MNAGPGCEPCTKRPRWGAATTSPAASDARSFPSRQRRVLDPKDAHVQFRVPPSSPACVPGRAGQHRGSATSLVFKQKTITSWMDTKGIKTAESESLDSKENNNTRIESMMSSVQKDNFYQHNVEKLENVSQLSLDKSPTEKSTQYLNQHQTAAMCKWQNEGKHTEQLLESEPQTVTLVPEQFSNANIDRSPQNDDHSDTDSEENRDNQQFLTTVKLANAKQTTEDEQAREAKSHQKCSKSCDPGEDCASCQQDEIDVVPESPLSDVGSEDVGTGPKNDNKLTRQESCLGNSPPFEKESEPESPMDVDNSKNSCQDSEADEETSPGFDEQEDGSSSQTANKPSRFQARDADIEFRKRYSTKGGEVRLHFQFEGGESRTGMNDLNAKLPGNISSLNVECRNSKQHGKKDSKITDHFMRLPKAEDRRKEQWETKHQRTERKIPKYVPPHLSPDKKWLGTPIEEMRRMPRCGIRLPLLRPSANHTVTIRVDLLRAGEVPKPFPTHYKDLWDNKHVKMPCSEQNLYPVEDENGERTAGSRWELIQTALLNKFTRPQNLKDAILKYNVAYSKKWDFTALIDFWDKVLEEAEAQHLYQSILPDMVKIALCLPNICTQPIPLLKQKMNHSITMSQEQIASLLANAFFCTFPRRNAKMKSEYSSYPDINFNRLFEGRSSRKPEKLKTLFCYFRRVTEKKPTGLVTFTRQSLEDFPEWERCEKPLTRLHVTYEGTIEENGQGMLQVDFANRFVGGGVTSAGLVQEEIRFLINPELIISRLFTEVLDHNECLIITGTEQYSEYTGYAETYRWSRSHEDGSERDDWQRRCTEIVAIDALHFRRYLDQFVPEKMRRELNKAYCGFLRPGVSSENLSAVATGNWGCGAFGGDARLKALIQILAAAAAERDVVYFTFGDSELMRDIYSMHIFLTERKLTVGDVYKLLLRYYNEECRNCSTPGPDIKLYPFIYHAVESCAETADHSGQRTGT

Row | Structure (SMILES) | IC50 (Human Full Length PARG; read-out: PARG Biochem IC50) [µM] | IC50 (PARG in HeLa cell line; [2]) [µM] | IC50 (Human Full Length ARH3) [µM] | IC50 (Human Full Length PARG; [3]) [µM] | other results
1 | Cc1nc(Cn2c(=O)n(Cc3nnc(C)s3)c(=O)c3cc(S(=O)(=O)NC4(CF)CC4)ccc32)no1 [Example 631, N-[1-(Fluoromethyl)cyclopropyl]-1-[(5-methyl-1,2,4-oxadiazol-3-yl)methyl]-3-[(5-methyl-1,3,4-thiadiazol-2-yl)methyl]-2,4-dioxo-quinazoline-6-sulfonamide] | 0.121 | 0.706 | > 150 |  | 
2 | Cn1c(C2CC2)nc2ccc(S(=O)(=O)NC3(C)CC3)cc2c1=O [Example 80] |  |  | > 150 | 2.18 | IC50 [1]: > 150 µM
3 | Cc1cc(Cn2c(=O)c3cc(S(=O)(=O)NC4(CF)CC4)ccc3n(Cc3sc(C)nc3C)c2=O)on1 [Example 616, 1-[(2,4-Dimethylthiazol-5-yl)methyl]-N-[1-(fluoromethyl)cyclopropyl]-3-[(3-methylisoxazol-5-yl)methyl]-2,4-dioxo-quinazoline-6-sulfonamide] | 0.017 | 0.025 | > 150 |  | 
4 | CCCCn1c(=O)n(Cc2cnn(C)c2)c(=O)c2cc(S(=O)(=O)NC3(CF)CC3)ccc21 [Example 617, 1-Butyl-N-[1-(fluoromethyl)cyclopropyl]-3-[(1-methylpyrazol-4-yl)methyl]-2,4-dioxo-quinazoline-6-sulfonamide] | 0.039 | 0.037 | > 150 |  | 
5 | Cc1cc(Cn2c(=O)c3cc(S(=O)(=O)NC4(CF)CC4)ccc3n(C)c2=O)sn1 [Example 625, N-[1-(Fluoromethyl)cyclopropyl]-1-methyl-3-[(3-methylisothiazol-5-yl)methyl]-2,4-dioxo-quinazoline-6-sulfonamide] | 0.597 | 0.73 | > 150 |  | 
6 | Cc1nnc(Cn2c(=O)c3cc(S(=O)(=O)NC4(CF)CC4)ccc3n(CCF)c2=O)s1 [Example 629, 1-(2-Fluoroethyl)-N-[1-(fluoromethyl)cyclopropyl]-3-[(5-methyl-1,3,4-thiadiazol-2-yl)methyl]-2,4-dioxo-quinazoline-6-sulfonamide] | 0.082 | 0.226 | > 150 |  | 
7 | Cn1cc(Cn2c(=O)c3cc(S(=O)(=O)NC4(CF)CC4)ccc3n(Cc3ccns3)c2=O)cn1 [Example 578, N-[1-(Fluoromethyl)cyclopropyl]-1-(isothiazol-5-ylmethyl)-3-[(1-methylpyrazol-4-yl)methyl]-2,4-dioxo-quinazoline-6-sulfonamide] | 0.01 |  | > 150 |  | 
8 | Cc1ncsc1Cn1c(=O)n(Cc2cnn(C)c2)c(=O)c2cc(S(=O)(=O)NC3(CF)CC3)ccc21 [Example 572, N-[1-(Fluoromethyl)cyclopropyl]-3-[(1-methylpyrazol-4-yl)methyl]-1-[(4-methylthiazol-5-yl)methyl]-2,4-dioxo-quinazoline-6-sulfonamide] | 0.007 |  | > 150 |  | 
9 | Cc1nnc(Cn2c(=O)c3cc(S(=O)(=O)NC4(CF)CC4)ccc3n(Cc3cnn(C)c3)c2=O)s1 [Example 630, N-[1-(Fluoromethyl)cyclopropyl]-1-[(1-methylpyrazol-4-yl)methyl]-3-[(5-methyl-1,3,4-thiadiazol-2-yl)methyl]-2,4-dioxo-quinazoline-6-sulfonamide] | 0.016 |  | > 150 |  | IC50 (PARG in HeLa cell line; [4]): 0.542 µM
10 | Cc1oncc1Cn1c(=O)n(Cc2cnn(C)c2)c(=O)c2cc(S(=O)(=O)NC3(CF)CC3)ccc21 [Example 579, N-[1-(Fluoromethyl)cyclopropyl]-1-[(5-methylisoxazol-4-yl)methyl]-3-[(1-methylpyrazol-4-yl)methyl]-2,4-dioxo-quinazoline-6-sulfonamide] | 0.009 |  | > 150 |  | 
11 | CCn1c(=O)n(Cc2nnc(C)s2)c(=O)c2cc(S(=O)(=O)NC3(C)CC3)ccc21 [Example 614, 1-Ethyl-N-(1-methylcyclopropyl)-3-[(5-methyl-1,3,4-thiadiazol-2-yl)methyl]-2,4-dioxo-quinazoline-6-sulfonamide] | 0.239 |  | > 150 |  | IC50 (PARG in HeLa cell line; [4]): 0.122 µM
12 | CC(=O)Cn1c(=O)n(Cc2cnn(C)c2)c(=O)c2cc(S(=O)(=O)NC3(C)CC3)ccc21 [Example 367] |  |  |  | 0.353 | IC50 (PARG in HeLa cell line; [5]): 0.34 µM
13 | Cn1cc(Cn2c(=O)[nH]c3cc(F)c(S(=O)(=O)NC4(C)CC4)cc3c2=O)cn1 [Example 384, 7-Fluoro-N-(1-methylcyclopropyl)-3-[(1-methylpyrazol-4-yl)methyl]-2,4-dioxo-1H-quinazoline-6-sulfonamide] |  |  |  | 0.374 | IC50 (PARG in HeLa cell line; [5]): 0.974 µM
14 | Cn1cc(Cn2c(=O)c3cc(S(=O)(=O)NC4(CF)CC4)ccc3n(Cc3cnn(C)n3)c2=O)cn1 [Example 596, N-[1-(Fluoromethyl)cyclopropyl]-3-[(1-methylpyrazol-4-yl)methyl]-1-[(2-methyltriazol-4-yl)methyl]-2,4-dioxo-quinazoline-6-sulfonamide] | 0.085 | 0.096 |  |  | 
15 | C#CC1(NS(=O)(=O)c2ccc3c(c2)c(=O)n(Cc2cnn(C)c2)c(=O)n3C)CC1 [Example 427, N-(1-Ethynylcyclopropyl)-1-methyl-3-[(1-methylpyrazol-4-yl)methyl]-2,4-dioxo-quinazoline-6-sulfonamide] | 5.4 | 1.27 |  |  | 
16 | Cc1cc(Cn2c(=O)c3cc(S(=O)(=O)NC4(CF)CC4)ccc3n(C(F)F)c2=O)on1 [Example 604, 1-(Difluoromethyl)-N-[1-(fluoromethyl)cyclopropyl]-3-[(3-methylisoxazol-5-yl)methyl]-2,4-dioxo-quinazoline-6-sulfonamide] | 0.788 | 0.295 |  |  | 

Row | Structure (SMILES) | IC50 (Human Full Length PARG; read-out: PARG Biochem IC50) [µM] | IC50 (PARG in HeLa cell line; [2]) [µM] | IC50 (Human Full Length ARH3) [µM] | IC50 (Human Full Length PARG; [3]) [µM] | other results
17 | Cc1nc(C)c(Cn2c(=O)n(C)c(=O)c3cc(S(=O)(=O)NC4(C#N)CC4)ccc32)s1 [Example 204] |  |  |  | 0.118 | IC50 (PARG in HeLa cell line; [6]): 0.646 µM
18 | Cc1cc(Cn2c(=O)c3cc(S(=O)(=O)NC4(C)CC4)ccc3n(CC3CCOCC3)c2=O)on1 [Example 321] |  |  |  | 0.138 | IC50 (PARG in HeLa cell line; [6]): 0.195 µM
19 | Cc1nc(C)c(Cn2c(=O)n(Cc3cnn(C)c3)c(=O)c3cc(S(=O)(=O)NC4(C)CC4)c(F)cc32)s1 [Example 396, 1-[(2,4-Dimethylthiazol-5-yl)methyl]-7-fluoro-N-(1-methylcyclopropyl)-3-[(1-methylpyrazol-4-yl)methyl]-2,4-dioxo-quinazoline-6-sulfonamide] |  |  |  | 0.011 | IC50 (PARG in HeLa cell line; [6]): 0.017 µM
20 | Cn1cc(Cn2c(=O)c3cc(S(=O)(=O)NC4(CF)CC4)ccc3n(CC3CC3)c2=O)cn1 [Example 417, 1-(Cyclopropylmethyl)-N-[1-(fluoromethyl)cyclopropyl]-3-[(1-methylpyrazol-4-yl)methyl]-2,4-dioxo-quinazoline-6-sulfonamide] | 0.04 | 0.042 |  |  | 
21 | CSCCn1c(=O)n(Cc2cnn(C)c2)c(=O)c2cc(S(=O)(=O)NC3(C)CC3)ccc21 [Example 366] |  |  |  | 0.16 | IC50 (PARG in HeLa cell line; [6]): 0.03 µM
22 | Cn1cc(Cn2c(=O)c3cc(S(=O)(=O)NC4(C)CC4)ccc3n(CC3CCOCC3)c2=O)cn1 [Example 269] |  |  |  | 0.057 | IC50 (PARG in HeLa cell line; [6]): 0.098 µM
23 | Cn1c(=O)n(Cc2cnn(CC#N)c2)c(=O)c2cc(S(=O)(=O)NC3(C)CC3)ccc21 [Example 217] |  |  |  | 0.365 | IC50 (PARG in HeLa cell line; [6]): 0.529 µM
24 | Cc1cc(Cn2c(=O)c3cc(S(=O)(=O)NC4(C)CC4)cc(-c4cnn(C)c4)c3n(C)c2=O)on1 [Example 483, 1-Methyl-N-(1-methylcyclopropyl)-3-[(3-methylisoxazol-5-yl)methyl]-8-(1-methylpyrazol-4-yl)-2,4-dioxo-quinazoline-6-sulfonamide] | 1.69 | 0.845 |  |  | 
25 | Cc1cc(Cn2c(=O)c3cc(S(=O)(=O)NC4(C)CC4)ccc3n(Cc3noc(C)n3)c2=O)on1 [Example 243] |  |  |  | 0.312 | IC50 (PARG in HeLa cell line; [6]): 0.221 µM
26 | CC(C)CCn1c(=O)n(Cc2cnn(C)c2)c(=O)c2cc(S(=O)(=O)NC3(CF)CC3)ccc21 [Example 613, N-[1-(Fluoromethyl)cyclopropyl]-1-isopentyl-3-[(1-methylpyrazol-4-yl)methyl]-2,4-dioxo-quinazoline-6-sulfonamide] | 0.042 | 0.056 |  |  | 
27 | Cc1cc(Cn2c(=O)c3cc(S(=O)(=O)NC4(C)CC4)ccc3n(CC3CCN(C)C3)c2=O)on1 (stereo not shown) [Example 361] |  |  |  | 0.332 | IC50 (PARG in HeLa cell line; [6]): 1.41 µM
28 | Cn1cc(Cn2c(OCC3(C)COC3)nc3cc(F)c(S(=O)(=O)NC4(C)CC4)cc3c2=O)cn1 [Example 397, 7-Fluoro-3-((1-methyl-1H-pyrazol-4-yl)methyl)-N-(1-methylcyclopropyl)-2-((3-methyloxetan-3-yl)methoxy)-4-oxo-3,4-dihydroquinazoline-6-sulfonamide] | 0.282 | 0.256 |  |  | 
29 | CC(C)Cn1c(=O)n(Cc2cnn(C)c2)c(=O)c2cc(S(=O)(=O)NC3(CF)CC3)ccc21 [Example 549, N-[1-(Fluoromethyl)cyclopropyl]-1-isobutyl-3-[(1-methylpyrazol-4-yl)methyl]-2,4-dioxo-quinazoline-6-sulfonamide] | 0.14 |  |  |  | IC50 (PARG in HeLa cell line; [4]): 0.091 µM
30 | Cn1cc(Cn2c(=O)c3cc(S(=O)(=O)NC4(C)CC4)c(F)cc3n(CC3CC3)c2=O)cn1 [Example 388] |  |  |  | 0.025 | IC50 (PARG in HeLa cell line; [6]): 0.031 µM
31 | Cn1cc(Cn2c(=O)c3cc(S(=O)(=O)NC4(CF)CC4)ccc3n(CC3CC(F)(F)C3)c2=O)cn1 [Example 444, 1-[(3,3-Difluorocyclobutyl)methyl]-N-[1-(fluoromethyl)cyclopropyl]-3-[(1-methylpyrazol-4-yl)methyl]-2,4-dioxo-quinazoline-6-sulfonamide] | 0.063 |  |  |  | IC50 (PARG in HeLa cell line; [4]): 0.09 µM
